Test results reported in patent US20230348424A1, “HETEROCYCLIC COMPOUNDS AND METHODS OF USE” (Schrödinger, Inc., priority 2022, published 2023).

Molecular target: SOS1:KRAS (G12C) interaction (Homo sapiens (Human), UniProt Q07889)
Experiment: SOS1 KRas(G12C) FRET Assay
Format: binding
Settings: 0.5 nM His10-SOS1 (res. 564-1049), 2.5 nM GST-KRAS G12C (res. 1-169), 2 hrs at RT
Outline: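 GST-KRAS G12C (res. 1-169) at 2.5 nM and His10-SOS1 (res. 564-1049) at 0.5 nM, final, in PBS with 0.1% BSA, 5 mM MgCl2, 100 mM KF, 5 mM DTT and 0.5% DMSO. After 2 h at RT, FRET read at 665/615 nm and normalized to DMSO and no-SOS1 controls. IC50 by non-linear regression.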

Chain of SOS1:KRAS (G12C) interaction (Q07889 564-1049, stated change not applied): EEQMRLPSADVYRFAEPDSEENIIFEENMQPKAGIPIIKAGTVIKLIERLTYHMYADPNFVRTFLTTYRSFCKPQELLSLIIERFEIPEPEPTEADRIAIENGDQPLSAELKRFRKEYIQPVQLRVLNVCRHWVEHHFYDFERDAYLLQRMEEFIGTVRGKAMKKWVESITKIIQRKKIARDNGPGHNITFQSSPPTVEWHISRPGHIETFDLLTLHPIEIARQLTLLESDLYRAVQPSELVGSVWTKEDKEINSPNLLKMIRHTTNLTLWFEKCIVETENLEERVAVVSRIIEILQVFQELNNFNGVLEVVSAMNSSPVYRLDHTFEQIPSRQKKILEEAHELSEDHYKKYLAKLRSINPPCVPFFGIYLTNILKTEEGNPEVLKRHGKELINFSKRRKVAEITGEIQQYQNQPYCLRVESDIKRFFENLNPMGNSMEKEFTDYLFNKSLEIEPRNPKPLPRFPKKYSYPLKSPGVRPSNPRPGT

C[C@@H](NC(=O)c1cn(C23COC(C(F)F)(C2)C3)c(=O)cc1NC1[C@H]2CN(C)C[C@@H]12)c1cccc(C(F)F)c1F (stereo partly drawn) [Example 263, N-((R)-1-(3-(difluoromethyl)-2-fluorophenyl)ethyl)-1-(1-(difluoromethyl)-2-oxabicyclo[2.1.1]hexan-4-yl)-4-(((1R,5S,6s)-3-methyl-3-azabicyclo[3.1.0]hexan-6-yl)amino)-6-oxo-1,6-dihydropyridine-3-carboxamide]
IC50: 14.9 nM

CC(=O)N1CCC(C)(n2cc(C(=O)N[C@H](C)c3cccc(C(F)F)c3F)c(NC3CCN(C)CC3)cc2=O)C1 (stereo partly drawn) [Example 264, 1-(1-acetyl-3-methylpyrrolidin-3-yl)-N-((R)-1-(3-(difluoromethyl)-2-fluorophenyl)ethyl)-4-((1-methylpiperidin-4-yl)amino)-6-oxo-1,6-dihydropyridine-3-carboxamide]
IC50: 2.2 nM

C[C@@H](NC(=O)c1cn(C2(C)CCN(C(=O)C3(F)CC3)C2)c(=O)cc1NC1CCN(C)CC1)c1cccc(C(F)F)c1F (stereo partly drawn) [Example 267, N-((R)-1-(3-(difluoromethyl)-2-fluorophenyl)ethyl)-1-(1-(1-fluorocyclopropane-1-carbonyl)-3-methylpyrrolidin-3-yl)-4-((1-methylpiperidin-4-yl)amino)-6-oxo-1,6-dihydropyridine-3-carboxamide]
IC50: 2.44 nM

C[C@@H](NC(=O)c1cn([C@@]2(C)CCN(C(=O)C3(F)CC3)C2)c(=O)cc1NC1CCN(C)CC1)c1cccc(C(F)F)c1F [Example 268, N-((R)-1-(3-(difluoromethyl)-2-fluorophenyl)ethyl)-1x-((S)-1-(1-fluorocyclopropane-1-carbonyl)-3-methylpyrrolidin-3-yl)-4-((1-methylpiperidin-4-yl)amino)-6-oxo-1,6-dihydropyridine-3-carboxamide]
IC50: 32.8 nM

C[C@@H](NC(=O)c1cn([C@]2(C)CCN(C(=O)C3(F)CC3)C2)c(=O)cc1NC1CCN(C)CC1)c1cccc(C(F)F)c1F [Example 269, N-((R)-1-(3-(difluoromethyl)-2-fluorophenyl)ethyl)-1-((R)-1-(1-fluorocyclopropane-1-carbonyl)-3-methylpyrrolidin-3-yl)-4-((1-methylpiperidin-4-yl)amino)-6-oxo-1,6-dihydropyridine-3-carboxamide]
IC50: 1.21 nM

C[C@@H](NC(=O)c1cn(C2(C)CN(C(=O)C3CC3)C2)c(=O)cc1N[C@H]1[C@@H]2CN(C)C[C@@H]21)c1cccc(C(F)F)c1F [Example 270, 1-(1-(cyclopropanecarbonyl)-3-methylazetidin-3-yl)-N-((R)-1-(3-(difluoromethyl)-2-fluorophenyl)ethyl)-4-(((1R,5S,6s)-3-methyl-3-azabicyclo[3.1.0]hexan-6-yl)amino)-6-oxo-1,6-dihydropyridine-3-carboxamide]
IC50: 1.74 nM

C[C@@H](NC(=O)c1cn(C2(C(F)F)CC2)c(=O)cc1N[C@H]1[C@@H]2CNC[C@@H]21)c1cccc(C(F)F)c1F [Example 279, 4-(((1R,5S,6s)-3-azabicyclo[3.1.0]hexan-6-yl)amino)-N-((R)-1-(3-(difluoromethyl)-2-fluorophenyl)ethyl)-1-(1-(difluoromethyl)cyclopropyl)-6-oxo-1,6-dihydropyridine-3-carboxamide]
IC50: 37.3 nM

Cc1c([C@@H](C)NC(=O)c2cn(C3CCOCC3)c(=O)cc2NC2CCNCC2)cccc1C(F)(F)F [Example 282, (R)-N-(1-(2-methyl-3-(trifluoromethyl)phenyl)ethyl)-6-oxo-4-(piperidin-4-ylamino)-1-(tetrahydro-2H-pyran-4-yl)-1,6-dihydropyridine-3-carboxamide]
IC50: 34.4 nM

Cc1c([C@@H](C)NC(=O)c2cn(C3CCOCC3)c(=O)cc2NC2CCN(C)CC2(F)F)cccc1C(F)(F)F (stereo partly drawn) [Example 283, 4-((3,3-difluoro-1-methylpiperidin-4-yl)amino)-N-((R)-1-(2-methyl-3-(trifluoromethyl)phenyl)ethyl)-6-oxo-1-(tetrahydro-2H-pyran-4-yl)-1,6-dihydropyridine-3-carboxamide]
IC50: 137 nM

Cc1c([C@@H](C)NC(=O)c2cn(C3CCOCC3)c(=O)cc2NC2CCN(C3CC3)CC2)cccc1C(F)(F)F [Example 284, (R)-4-((1-cyclopropylpiperidin-4-yl)amino)-N-(1-(2-methyl-3-(trifluoromethyl)phenyl)ethyl)-6-oxo-1-(tetrahydro-2H-pyran-4-yl)-1,6-dihydropyridine-3-carboxamide]
IC50: 23 nM

C[C@@H](NC(=O)c1cn([C@]23COC[C@H]2C3)c(=O)cc1NC1CCN(C)CC1)c1cccc(C(F)F)c1F [Example 285, 1-((1S,SS)-3-oxabicyclo[3.1.0]hexan-1-yl)-N-((R)-1-(3-(difluoromethyl)-2-fluorophenyl)ethyl)-4-((1-methylpiperidin-4-yl)amino)-6-oxo-1,6-dihydropyridine-3-carboxamide]
IC50: 4.7 nM

[2H]C([2H])([2H])N1CCC(Nc2cc(=O)n(C3(C(F)F)CC3)cc2C(=O)N[C@H](C)c2cccc(C(F)F)c2F)CC1 [Example 286, (R)-N-(1-(3-(difluoromethyl)-2-fluorophenyl)ethyl)-1-(1-(difluoromethyl)cyclopropyl)-4-((1-(methyl-d3)piperidin-4-yl)amino)-6-oxo-1,6-dihydropyridine-3-carboxamide]
IC50: 15.5 nM

C[C@@H](NC(=O)c1cn([C@]23COC[C@H]2C3)c(=O)cc1N[C@H]1[C@@H]2CN(C)C[C@@H]21)c1cccc(C(F)F)c1F [Example 287, 1-((1S,5S)-3-oxabicyclo[3.1.0]hexan-1-yl)-N-((R)-1-(3-(difluoromethyl)-2-fluorophenyl)ethyl)-4-(((1R,5S,6s)-3-methyl-3-azabicyclo[3.1.0]hexan-6-yl)amino)-6-oxo-1,6-dihydropyridine-3-carboxamide]
IC50: 9.9 nM

C[C@@H](NC(=O)c1cn(C2(C(F)F)CC2)c(=O)cc1NC1CCN(C2(C)CC2)CC1)c1cccc(C(F)F)c1F [Example 288, (R)-N-(1-(3-(difluoromethyl)-2-fluorophenyl)ethyl)-1-(1-(difluoromethyl)cyclopropyl)-4-((1-(1-methylcyclopropyl)piperidin-4-yl)amino)-6-oxo-1,6-dihydropyridine-3-carboxamide]
IC50: 23.6 nM

C[C@@H](NC(=O)c1cn([C@]23COC[C@H]2C3)c(=O)cc1N[C@H]1[C@@H]2CN(C)C[C@@H]21)c1cccc(C(C)(F)F)c1F [Example 289, 1-((1S,5S)-3-oxabicyclo[3.1.0]hexan-1-yl)-N-((R)-1-(3-(1,1-difluoroethyl)-2-fluorophenyl)ethyl)-4-(((1R,5S,6s)-3-methyl-3-azabicyclo[3.1.0]hexan-6-yl)amino)-6-oxo-1,6-dihydropyridine-3-carboxamide]
IC50: 13.3 nM

C[C@@H](NC(=O)c1cn([C@]23COC[C@H]2C3)c(=O)cc1N[C@H]1[C@@H]2CN(C)C[C@@H]21)c1cccc(C(F)(F)F)c1F [Example 290, 1-((1S,5S)-3-oxabicyclo[3.1.0]hexan-1-yl)-N-((R)-1-(2-fluoro-3-(trifluoromethyl)phenyl)ethyl)-4-(((1R,5S,6s)-3-methyl-3-azabicyclo[3.1.0]hexan-6-yl)amino)-6-oxo-1,6-dihydropyridine-3-carboxamide]
IC50: 9.2 nM

C[C@@H](NC(=O)c1cn(C2(C(F)F)CC2)c(=O)cc1N[C@H]1[C@@H]2CC[C@H]1CN(C)C2)c1cccc(C(F)F)c1F [Example 293, N-((R)-1-(3-(difluoromethyl)-2-fluorophenyl)ethyl)-1-(1-(difluoromethyl)cyclopropyl)-4-(((1R,5S,8r)-3-(methyl-d3)-3-azabicyclo[3.2.1]octan-8-yl)amino)-6-oxo-1,6-dihydropyridine-3-carboxamide]
IC50: 19.2 nM

C[C@@H](NC(=O)c1cn(C2(C(F)F)CC2)c(=O)cc1N[C@@H]1[C@@H]2CC[C@H]1CN(C)C2)c1cccc(C(F)F)c1F [Example 294, N-((R)-1-(3-(difluoromethyl)-2-fluorophenyl)ethyl)-1-(1-(difluoromethyl)cyclopropyl)-4-(((1R,5S,8s)-3-(methyl-d3)-3-azabicyclo[3.2.1]octan-8-yl)amino)-6-oxo-1,6-dihydropyridine-3-carboxamide]
IC50: 53.4 nM

COCCN1CC(CNc2cc(=O)n(C3CCOCC3)cc2C(=O)N[C@H](C)c2cccc(C(F)(F)F)c2C)C1 [Example 295, (R)-4-(((1-(2-methoxyethyl)azetidin-3-yl)methyl)amino)-N-(1-(2-methyl-3-(trifluoromethyl)phenyl)ethyl)-6-oxo-1-(tetrahydro-2H-pyran-4-yl)-1,6-dihydropyridine-3-carboxamide]
IC50: 53.6 nM

Cc1c([C@@H](C)NC(=O)c2cn(C3CCOCC3)c(=O)cc2NC2CCCn3cncc32)cccc1C(F)(F)F (stereo partly drawn) [Example 300, N-((R)-1-(2-methyl-3-(trifluoromethyl)phenyl)ethyl)-6-oxo-1-(tetrahydro-2H-pyran-4-yl)-4-((5,6,7,8-tetrahydroimidazo[1,5-a]pyridin-8-yl)amino)-1,6-dihydropyridine-3-carboxamide]
IC50: 20.8 nM

Cc1c([C@@H](C)NC(=O)c2cn(C3CCOCC3)c(=O)cc2NC[C@H]2CC[C@H](N(C)C)CC2)cccc1C(F)(F)F [Example 301, 4-((((1r,4R)-4-(dimethylamino)cyclohexyl)methyl)amino)-N-((R)-1-(2-methyl-3-(trifluoromethyl)phenyl)ethyl)-6-oxo-1-(tetrahydro-2H-pyran-4-yl)-1,6-dihydropyridine-3-carboxamide]
IC50: 45.3 nM

Cc1c([C@@H](C)NC(=O)c2cn(C3CCOCC3)c(=O)cc2NC[C@H]2CC[C@@H](N(C)C)CC2)cccc1C(F)(F)F [Example 302, 4-((((1s,4S)-4-(dimethylamino)cyclohexyl)methyl)amino)-N-((R)-1-(2-methyl-3-(trifluoromethyl)phenyl)ethyl)-6-oxo-1-(tetrahydro-2H-pyran-4-yl)-1,6-dihydropyridine-3-carboxamide]
IC50: 31.5 nM
